# Results from US20230277538A1, “THERAPEUTICS FOR THE TREATMENT OF FSHD” (UCL BUSINESS LTD, priority 2020, published 2023).
# Residues, ends and D or L forms follow the SMILES beside them. *: point of attachment. Cbz = O=C(OCc1ccccc1)*; CH2F = FC*
# Legend:
# iC2C12-DUX4 myoblasts = experiment: Cell viability (ATP assay, CellTiter-Glo) of dox-induced iC2C12-DUX4 myoblasts with death inhibitors; format: cell-based, mouse; settings: for increase in the number of viable cells: inhibitor present; for optimal dose from dose response: with or without doxycycline 200 ng/ml, 24 hours after dox induction
# Procedure: (A) Cell viability of iC2C12-DUX4 myoblasts at 48 h of induction without or with dox (200 ng/ml) and treatment with various concentrations of the pan-caspase inhibitor Z-VAD (μM). […] Ctrl: DMSO alone.
# FIG. 10: Role of necroptosis in the DUX4 mediated cell death. Several death inhibitors were added at different concentrations alone to iC2C12 myoblasts in presence or not of Doxycycline 200 ng/ml.
# For myoblast experiments, iC2C12-Dux4 were seeded into white 96-well plates (3000 cells per well) in growth medium. After 24 h, DUX4 expression was induced by adding doxycycline (Sigma-Aldrich) at a final concentration of 50 to 1000 ng/mL. For myotubes experiments, iC2C12-Dux4 were seeded into white 96-well plates (1500 cells per well) in growth medium. After 48 h, cells were differentiated with DMEM, 2% horse serum and 10 μg/mL insulin. […] Inhibition of apoptosis and/or necroptosis was simultaneously realized to DUX4 induction for 24 h using 20 μM of pan-caspase inhibitor Z-VAD.fmk (Merk Chemicals), 30 μM Necrostatin-1, 3 μM GSK872, 0.2 Cyclosporin A (Cambridge Bioscience). Cell survival was determined by CellTiter-Glo luminescent cell viability assay (Promega), membrane permeability by CytoTox-Glo cytotoxicity assay (Promega) and caspase activation by Caspase-Glo 3/7 Assay (Promega) according to the manufacturer's instructions. Luminescence was read by a microplate reader Tecan.
# The iC2C12-DUX4 viability was assessed for 2 different doses of dox and the results are expressed as the percentage of cells alive in the presence of the different compounds compared to the condition without them. Z-VAD was always added to eliminate any bias linked to caspases 3/7 activation/synergic effect.
# [1] = test system: Cre-inducible FLExDUX4 mice; experiment: In vivo GSK'872 treatment of tamoxifen-induced Cre-inducible FLExDUX4 mice; design: species or system mouse; settings: GSK'872 2 mg/kg for 5 days IP; tamoxifen 10 mg/kg for 2 days IP; mice killed at 7 weeks
# Procedure: Mice were killed at the age of 7 weeks. (A) Total body weight was measured at day 0 and 7. Y-axis represents the weight after tamoxifen at D7 relative to the weight before tamoxifen injection at DO. (BC) Weights of the tibialis anterior (TA) (B) and quadriceps (C) were measured at D7. (DE) Expression levels of 2 genes (Tm7sf4 (D) and DuxBl (E)) downstream of DUX4 were measured in the quadriceps. Y-axis represents arbitrary units relative to Psma2. • * P<0.05, **P<0.01, ***P<0.001, one-way ANOVA followed by a Tukey's multiple comparison test.
# Three-week-old animals were weighted 3 times a week, after weaning. The tamoxifen (MP Biomedicals) injections were realized according to Jones et al (Jones, 2018). Six-week-old mice were injected (IP) with Tamoxifen (TMX) on two consecutive days for a final concentration of 10 mg/kg. Following TMX injection, animals were daily weighed, and sacrificed after a week. Muscles were harvested and frozen in liquid nitrogen or liquid-nitrogen-cooled isopentane for further analysis.
# iC2C12-DUX4 myotubes = experiment: cells; format: cell-based, mouse
# Procedure: FIG. 4: Ripk3 inhibition decreases DUX4-mediated cell death in iC2C12-DUX4 myotubes. (A) iC2C12-DUX4 viability in presence of dox 1000 ng/ml and treated with different doses of Z-VAD, Necrostatin-1 or GSK'872. (B) Cell viability in presence of dox 1000 ng/ml with the different compounds alone or in combination. Z: Z-vad (20 μM); N: necrostatin-1 (30 μM), N+: necrostatin-1 (90 μM), G: GSK'872 (2 μM); G+: GSK'872 (4 μM).
# (§1) Inducible iC2C12-Dux4 (Bosnakovski, 2008) were cultured in DMEM high glucose with GlutaMAX and no Sodium Pyruvate (Gibco), 20% fetal bovine serum, and 800 μg/mL G418 (Gibco). For myoblast experiments, iC2C12-Dux4 were seeded into white 96-well plates (3000 cells per well) in growth medium. After 24 h, DUX4 expression was induced by adding doxycycline (Sigma-Aldrich) at a final concentration of 50 to 1000 ng/mL. For myotubes experiments, iC2C12-Dux4 were seeded into white 96-well plates (1500 cells per well) in growth medium. After 48 h, cells were differentiated with DMEM, 2% horse serum and 10 μg/mL insulin. DUX4 expression was induced after 4 days of differentiation to not disturb myotube formation (Bosnakovski, 2008). Inhibition of apoptosis and/or necroptosis was simultaneously realized to DUX4 induction for 24 h using 20 μM of pan-caspase inhibitor Z-VAD.fmk (Merk Chemicals), 30 μM Necrostatin-1, 3 μM GSK872, 0.2 Cyclosporin A (Cambridge Bioscience). Cell survival was determined by CellTiter-Glo luminescent cell viability assay (Promega), membrane permeability by CytoTox-Glo cytotoxicity assay (Promega) and caspase activation by Caspase-Glo 3/7 Assay (Promega) according to the manufacturer's instructions. Luminescence was read by a microplate reader Tecan.
# The effects of the different inhibitors on iC2C12-DUX4 myotubes were investigated. Again, the results are expressed as the percentage of live cells in the presence of the different compounds compared to the control condition without. No effect of Z-VAD were observed arguing against a major role of caspases in DUX4-mediated toxicity (FIG. 4A). When the cells were cultivated with necrostatin-1 in the presence of dox (1000 ng/ml), necrostatin-1 concentrations […] 60 μM conferred a protection against cell death (up to 60%±6 of viable cells in presence of 60 μM necrostatin-1 compared to 39%±1 without, FIG. 4A), necrostatin-1 concentrations of 150 or 300 μM leading to up to 85%±2 viable cells (FIG. 4A). […] The different compounds were next added separately or together to iC2C12-DUX4 myotubes that were incubated with dox (1000 ng/ml). […] Indeed, at low (2 μM) or high (4 μM) concentration, GSK'872 increased cell viability by 2.1 fold (FIG. 4D). […] Ripk3 but also to a lesser extent Ripk1, participated in DUX4-mediated cell toxicity.
# Caspase 3/7 = experiment: Caspase-Glo 3/7 Assay in iC2C12-DUX4 cells; format: cell-based, mouse; settings: Z-Vad 30 μM or 50 μM, different concentrations of doxycycline
# Procedure: FIG. 9: Apoptosis is not involved in iC2C12-DUX4 death. (A) Cell viability on iC2C12-DUX4 myoblasts in the presence of different concentrations of DMSO induced a non-specific increase of cell survival. […] Caspase 3/7 activity was measured using the Caspase-Glo 3/7 Assay (Promega) according to the manufacturer's instructions.
# as §1, with “Inhibition of apoptosis and/or necroptosis was simultaneously realized to DUX4 induction for 24 h using 20 μM of pan-caspase inhibitor Z-VAD.fmk (Merk Chemicals), 30 μM Necrostatin-1, 3 μM GSK872, 0.2 Cyclosporin A (Cambridge Bioscience).” left out
# [2] = test system: necroptotic genes (Ripk1, Ripk3 and Mlk1) and DUX4-network genes (Tm7sf4, mDuxb1 and Wfdc3); experiment: mRNA expression of necroptotic and DUX4-network genes in treated Actal Cre-FLEx DUX4 mice; format: in vivo, mouse
# Procedure: Dabrafenib (30 mg/kg) was given by oral (p.o.) gavage to 4-5 week old Actal Cre-FLEx DUX4 animals 5 times/week for 4 weeks. Tamoxifen was intraperitoneally weakly injected (2 mg/kg). […] Expression of necroptotic genes (Ripk1, Ripk3 and Mlk1) and DUX4-network genes (Tm7sf4, mDuxb1 and Wfdc3) were measured.
# For muscles, cryopreserved tissues were transferred in tube containing 1.4 mm ceramic beads (FastPrep, MP biomedicals, UK) plus 1 mL of Trizol (Thermo Fisher Scientific, Paisley, UK) and shaken at 10000 rpm for 40 s. Total RNAs from cells or tissue were extracted using Trizol (Thermo Fisher) according the manufacturer's protocol. The quantity of RNA was determined using a nanodrop ND-1000 spectrophotometer (Thermo Scientific, Wilmington, Del., USA). Reverse transcription was performed on 1 μg of total RNA in a 10 μL final volume (Roche Transcriptor First Strand cDNA Synthesis kit). Quantitative PCR (qPCR) was designed according to the MIQE standards. qPCRs were performed on a LightCycler 480 Real-Time PCR System (Roche) in a final volume of 9 with 0.2 μL of RT product, 0.4 μM each of forward and reverse primers (see Tables 2 and 3), and 4.5 μL of SYBRGreen Mastermix (Roche).
# Dabrafenib (30 mg/kg) was administered by oral (p.o.) gavage to 4-5 week old animals 5 times/week for 4 weeks. Tamoxifen was intraperitoneally injected weakly (2 mg/kg).
# [3] = Mus musculus, Myotube, read-out: viable cells
smiles,measurement,setting,value
"CC(C)S(=O)(=O)c1ccc2nccc(Nc3ccc4scnc4c3)c2c1 [GSK'872, Benzothiazol-5-yl-[6-(propane-2-sulfonyl)-quinolin-4-yl]-amine]",increase in the number of viable cells,iC2C12-DUX4 myoblasts; iC2C12 myoblasts,10%
same,optimal dose from dose response,iC2C12-DUX4 myoblasts; myoblasts,3 µM
same,DUX4-mediated cell death in vivo,[1],decreased DUX4-mediated cell death in vivo
same,viability at 3 µM,iC2C12-DUX4 myotubes; [3],67%
same,viability at 6 µM,iC2C12-DUX4 myotubes; [3],77%
same,increase of the number of viable cells,"iC2C12-DUX4 myotubes; iC2C12-DUX4 myotubes, GSK'872 in combination with Z-Vad",2 fold
same,increase of cell viability,"iC2C12-DUX4 myotubes; myotubes, dox 1000 ng/ml, GSK'872 low (2 μM) or high (4 μM) concentration",2.1 fold
COC(=O)C[C@H](NC(=O)[C@H](C)NC(=O)[C@@H](NC(=O)OCc1ccccc1)C(C)C)C(=O)CF [Z-VAD] (Cbz-Val-Ala-Asp(OMe)-CH2F),percentage of viable cells,"iC2C12-DUX4 myoblasts; iC2C12 myoblasts, addition of Z-Vad",did not modify the percentage of viable cells
same,cell survival with and without Z-VAD,"iC2C12-DUX4 myoblasts; myoblasts, 200 ng/ml dox, different doses of Z-VAD",No change in cell survival
same,caspase 3/7 activity after DUX4 expression,Caspase 3/7,correctly inhibited
same,cell survival,"iC2C12-DUX4 myotubes; iC2C12-DUX4 myotubes, Z-vad added in vitro",did not increase cell survival
same,increase of cell survival,"iC2C12-DUX4 myotubes; myotubes, dox 1000 ng/ml, Z-VAD alone (20 μM)",10%±10
same,effect on live cells,"iC2C12-DUX4 myotubes; myotubes, dox 1000 ng/ml, different doses of Z-VAD",No effect
"CC(C)(C)c1nc(-c2cccc(NS(=O)(=O)c3c(F)cccc3F)c2F)c(-c2ccnc(N)n2)s1 [dabrafenib, N-{3-[5-(2-aminopyrimidin-4-yl)-2-tert-butylthiazol-4-yl]-2-fluorophenyl}-2,6-difluorobenzenesulfonamide]","mean expression of Ripk1, Ripk3, Mlk1, Tm7sf4, mDuxb1 and Wfdc3 relative to untreated control animals","[2]; dabrafenib 30 mg/kg p.o. 5 times/week for 4 weeks, 4-5 week old animals, tamoxifen 2 mg/kg",decreased mean expression of almost all of these genes
"Nc1cccc2c(=O)[nH][nH]c(=O)c12.[Na] [galavit, 3-aminophthalhydrazide monosodium salt]","mean expression of Ripk1, Ripk3, Mlk1, Tm7sf4, mDuxb1 and Wfdc3 relative to untreated control animals","[2]; galavit 4.5 mg/kg IP daily for 3 days, 7-8 week old males, tamoxifen 10 mg/kg day 0 and 1",decreased mean expression of almost all of these genes
"CN1C(=O)C(Cc2c[nH]c3ccccc23)NC1=S (stereo not shown) [necrostatin-1, 5-(1H-indol-3-ylmethyl)-3-methyl-2-sulfanylideneimidazolidin-4-one]",increase in the number of viable cells,iC2C12-DUX4 myoblasts; iC2C12 myoblasts,20%
same,increase of cells survival,"iC2C12-DUX4 myoblasts; myoblasts, 200 ng/ml dox, necrostatin-1 present, Z-VAD always added",34%±20
same,optimal dose from dose response,iC2C12-DUX4 myoblasts; myoblasts,30 µM
same,viability at 60 µM,iC2C12-DUX4 myotubes; [3],60%
